Assays:
Format in all cases: in vivo
[1] = test system: Balb/c mice; test: Open field test (exploratory locomotor activity); settings: 0.1 or 5 mg/kg oral, subchronic; for time spent in zones 2 and 3: in comparison to control mice, FIG. 1F; for locomotor activity (distance moved, velocity, strong mobility and immobility): recorded over 20 minutes, in comparison to the control mice, FIG. 1A-1D
Description: This method is one of the most popular in evaluation of animals' behaviour. It tests both motility parameters and anxiety (Prut et al). An individual mouse is placed in a novel plexiglass arena of 50×50 cm the floor of which is divided into 3 digital zones. The outer peripheral zone 1, the medial zone 2 and the most central zone 3. The animal behaviour in the open field is recorded by videotaping for 20 min and analyzed subsequently digitally using Noldus software for animal behaviour. The measurements include general motility: distance moved, velocity and strong mobility, as well as anxiety parameters including frequency of visits to the central area, time spent in the inner field, and number of rearing events in the centre. The more the animal stays and performs in the centre, it is less anxious.
40, 9 week old naïve male Balb/c mice were divided in 5 groups (8 mice in each group) and treated daily (0 min, p.o.) for two weeks, as follows: • 1. Control—0.5% DMSO 0.3 ml/mouse, po (3 ml/10 mice) (15 μl DMSO+2994 μl DDW), n=8. • 2. Diclofenac 10 mg/Kg=0.3 mg/0.3 ml/mouse, i.p. (3 ml/10 mice), n=8 • 3. 135S 0.5 mg/Kg=0.015 mg/0.3 ml/mouse, po (3 ml/10 mice) (135S 0.15 mg (Stock 50 mg/1 ml DMSO) 3 μl+2997 μl DDW), n=8 • 4. 135S 2.5 mg/kg=0.075 mg/0.3 ml/mouse, po (3 ml/10 mice) ([…] 0.75 mg (Stock 50 mg/1 ml DMSO) 15 μl+2985 μl DDW), n=8 • 5. 135S 0.1 mg/Kg=0.003 mg/0.3 ml/mouse, po (3 ml/10 mice) (135S […] (Stock 50 mg/1 ml DMSO) 0.6 μl+2999.4 μl DDW), n=8
Fifteen days after treatment, the five groups of mice listed above were subjected to the open field test for […]. The activity of the mice was assessed by an EthoVision video track system (Noldus Ltd.) A centre zone (“zone 3”; approximately 16% of the total area), a border area (“zone 1”; an 8 cm wide border around the edge of the arena) and an intermediate zone (“zone 2”; the remaining area) were defined. Quantitative parameters, such as the distance travelled and average speed, were recorded for the centre zone and the entire arena.
An Open Field test measures activity in a novel environment and can be used to assess a combination of locomotor activity, exploratory drive, neophobia, agoraphobia and other aspects of anxiety or fear in mice, as well as motor function. Treatment using a 0.1 mg/kg or 5 mg/kg dose of 135S or 175S compound was compared to the effect of treatment with a control substance (DMSO) or Diclofenac. The mice were placed in the centre of the arena and their activity and behaviour was recorded over a period of 20 minutes in respect of the distance moved (cm), velocity (cm/s), strong mobility and immobility. The ratio of total duration between the inner zones 2 and 3 in comparison to the outer zone 1 was recorded. The total duration in the inner zones 2 and 3 was also determined.

[2] = test system: Balb/c mice; test: Elevated plus maze; settings: 0.1, 0.5, 2.5 mg/kg p.o., test on day 8, 15 minutes, in comparison to control mice
Description: This model uses the natural fear of rodents to avoid open and elevated places. The apparatus consists of a plus-maze with two enclosed and two opposite open arms, elevated above the floor. […] This is one of the most widely used models to study effects of anxiety-like behaviour. The maze consisted of two opposing open arms (40×10 cm) and two opposing closed arms (40×10 cm, with 40 cm walls) on a platform 50 cm above the ground.
The groups of mice were treated as in Example 2 and an elevated plus maze test was carried out on day 8. This test was used as a further test of the anxiolytic effect of the drugs of the invention.
The mice were placed in the centre of the maze facing an open arm and were allowed to freely explore the maze for 15 minutes. During this time, their behaviour was observed.

[3] = test system: Balb/c mice; test: Forced swim test
Text: This is one of the most widely used tools for screening antidepressant activity preclinically in an acute test and was first described by Porsolt et al (1977). The test is based on the observation that rats and mice develop an immobile posture when placed in an inescapable cylinder of water. This behavior is considered to be a behavioural despair as opposed to an active form of coping with stressful conditions. An antidepressant will reduce immobility and increase motivated behaviour of the rodent to escape from the despaired conditions. This is evidenced by increase in time of swimming, distance moved, velocity and attempts to climb the walls (strong mobility). FST is considered a good screen tool with good reliability and predictive validity.
The test in male mice (Balb/c Harlan IL) was conducted after 4 days of drug administration (90 min post last drug administration). Round glass cylinders 18 cm diameter and 20 cm depth were used. Water temperature was 24-28° C. Motivated behaviour was defined by immobility, swimming and strong mobility. Immobility in the animals was defined by activity lower than 10% movement of the centre of gravity of the animal. Swimming was defined by the distance and the velocity of the animal, and climbing was related to strong mobility (movement of centre of gravity more than 30%). Animals were dropped to the cylinder for 6 min and scoring was performed in the last 4 min after 2 min of adaptation. All results were analyzed by the Noldus (Holland) system including a camera and software for animal behaviour analyses.
Mice were treated with compound 135S at three different concentrations (0.1 mg/kg, 0.5 mg/kg and 2.5 mg/kg), or with the anti-depressant Fluoxetine (10 mg/kg) administered orally in a daily dose for 14 days. The forced swim test was performed on […].
In a first trial, the mice were placed in a tank of water, from which they could not escape. The mobility and immobility of the mice was monitored. In a second trial, the same mice were placed back into the tank. The mobility and immobility of the mice was again monitored.

[4] = test system: Balb/c mice; test: Marble burying test; settings: 0.1, 0.5 and 2.5 mg/kg p.o., test on day 15, 20 glass marbles, 20 minutes; against control mice; FIG. 4
Description: The marble burying test is a useful model of neophobia, anxiety and obsessive-compulsive behaviour. It has also been proposed that the test may have predictive validity for the screening of novel antidepressants, anxiolytics and antipsychotics. Mice can be expected to bury roughly 75% of the marbles in a 30 min period, although it varies with strain and gender. In this study, male Balb/c mice were used.
The groups of mice were treated as in Example 2 and a marble burying test was carried out on day 15. The mice were placed individually into a cage containing 20 glass marbles and exposed for 20 minutes. The number of marbles buried by the mice was monitored. […] This test provides further evidence of the anxiolytic properties of this compound, in particular with respect to treatment of obsessive compulsive disorder (OCD).

[5] = 0.1, 0.5 and 2.5 mg/kg oral, in comparison to control mice, FIG. 2A-2C

Compound	time spent in zones 2 and 3 [1]	locomotor activity (distance moved, velocity, strong mobility and immobility) [1]	exploration of the maze ([2]; FIG. 3A-3D)	time spent within the open arms ([2]; FIG. 3B)	immobility [3, 5]	mobility [3, 5]	anti-depressant effect compared with Fluoxetine ([3]; 135S 0.1, 0.5 and 2.5 mg/kg against Fluoxetine 10 mg/kg, oral)	number of marbles buried [4]
O=C(CCc1ccccc1)NC(COCCO)Cc1ccc(O)cc1 (stereo not shown) [Compound 175S]	significant increase	did not show a significant effect						
CC(O)COCC(Cc1ccc(O)cc1)NC(=O)CCc1ccccc1 (stereo not shown) [Compound 135S]	significant increase	did not show a significant effect	increased exploration of the maze	increased time spent within the open arms	decrease	increase	greater than that resulting from treatment of mice with the common anti-depressant drug Fluoxetine	significantly less marbles than control mice

Reference: patent publication US9133103B2, “N-substituted benzenepropanamide and benzenepropenamide for use in the prevention or the treatment of affective disorders” (Novaremed, Ltd., priority 2011, dated 2015)
